The source of these data is US20260055112A1, “CRYSTALLINE FORM OF PYRAZOLOPYRIMIDINE ESTER COMPOUND AND METHODS OF PREPARING THE SAME” (Shanghai Maius Pharmaceutical Co. Ltd., priority 2022, published 2026).

The nature of data set [1]: Stability study: change in purity after 10 days storage under forced degradation conditions. As to conditions: for Purity, 25° C. + 92.5% RH (Day 10): stored at 25° C. and 92.5% RH for 10 days; for Purity (Day 10): stored for 10 days. The data set is classed as physicochemical. How it is done:
Samples of the amorphous and crystalline (Form I) compound of formula (I) were stored under different conditions: at 40° C. for 10 days; […]; at 25° C. and 92.5% RH (relative humidity) for 10 days; at 60° C. and 75% RH for 10 days; in light for 10 days; and at room temperature for 10 days.

The conditions of data set [2]: among the pyrazolopyrimidine ester prodrugs of CN 202111131059.0; cited from earlier work.

SMILES strings stand for the structures. “Also recorded” adds a separate entry of the source.

In the case of `C=CC(=O)N1CCC[C@@H](n2nc(-c3ccc(Oc4ccccc4)cc3)c3c(NC(=O)OCCCC)ncnc32)C1` [Amorphous, 1-[(3R)-3-[4-(butoxycarbonyl)-amino-3-(4-phenoxyphenyl)-1H-pyrazolo[3,4-d]pyrimidin-1-yl]-1-piperidinyl]-2-propen-1-one], the “Stability in general (in words)” value in data set [1] (amorphous product, heat and moisture) is given as “poor stability”. The “Degradation observed (in words)” value in data set [1] (storage 10 days at 40° C.) is given as “Significant degradation”; in data set [1] (storage 10 days at 40° C., listed as amorphous sample) it was “Noticeable degradation”; in data set [1] (storage 10 days at 60° C. and 75% RH) it was “almost complete degradation”. In addition, in data set [1], the “Purity, 25° C. + 92.5% RH (Day 10)” value was found to be 98.00%. In addition, the “Purity (Day 10)” value in data set [1] came out at 0%.
On to `C=CC(=O)N1CCC[C@@H](n2nc(-c3ccc(Oc4ccccc4)cc3)c3c(NC(=O)OCCCC)ncnc32)C1` [Form I, 1-[(3R)-3-[4-(butoxycarbonyl)-amino-3-(4-phenoxyphenyl)-1H-pyrazolo[3,4-d]pyrimidin-1-yl]-1-piperidinyl]-2-propen-1-one], for which the “Stability (in words)” value in data set [1] (10 days of storage at room temperature and in light) is recorded as “highly stable; also recorded: very stable”. The “Degree of degradation compared with the amorphous form” value in data set [1] (several forced degradation conditions) is “lower degrees of degradation than the amorphous compound; also recorded: lower degree of degradation than the amorphous form”. Further, in data set [1], the “Purity, 25° C. + 92.5% RH (Day 10)” value stood at 98.63% and the “Purity (Day 10)” value stood at 2.19%.
In the case of `C=CC(=O)N1CCC[C@@H](n2nc(-c3ccc(Oc4ccccc4)cc3)c3c(NC(=O)OCCCC)ncnc32)C1` [formula (I), 1-[(3R)-3-[4-(butoxycarbonyl)-amino-3-(4-phenoxyphenyl)-1H-pyrazolo[3,4-d]pyrimidin-1-yl]-1-piperidinyl]-2-propen-1-one], the “Rate of hydrolysis in blood” value in data set [2] is “hydrolyzed most rapidly”.
